Source: US20250230165A1, “HETEROCYCLIC COMPOUNDS FOR USE IN THE TREATMENT OF CANCER” (ARTIOS PHARMA LIMITED, priority 2021, published 2025)

Target: T1, Human Polθ polymerase domain (aa1820-2590) (Homo sapiens, UniProt O75417)
T1 construct: Human Polθ polymerase domain (aa1820-2590) was expressed in E. coli; made in house; host or cells: E. coli
T1 sequence (O75417 1820-2590): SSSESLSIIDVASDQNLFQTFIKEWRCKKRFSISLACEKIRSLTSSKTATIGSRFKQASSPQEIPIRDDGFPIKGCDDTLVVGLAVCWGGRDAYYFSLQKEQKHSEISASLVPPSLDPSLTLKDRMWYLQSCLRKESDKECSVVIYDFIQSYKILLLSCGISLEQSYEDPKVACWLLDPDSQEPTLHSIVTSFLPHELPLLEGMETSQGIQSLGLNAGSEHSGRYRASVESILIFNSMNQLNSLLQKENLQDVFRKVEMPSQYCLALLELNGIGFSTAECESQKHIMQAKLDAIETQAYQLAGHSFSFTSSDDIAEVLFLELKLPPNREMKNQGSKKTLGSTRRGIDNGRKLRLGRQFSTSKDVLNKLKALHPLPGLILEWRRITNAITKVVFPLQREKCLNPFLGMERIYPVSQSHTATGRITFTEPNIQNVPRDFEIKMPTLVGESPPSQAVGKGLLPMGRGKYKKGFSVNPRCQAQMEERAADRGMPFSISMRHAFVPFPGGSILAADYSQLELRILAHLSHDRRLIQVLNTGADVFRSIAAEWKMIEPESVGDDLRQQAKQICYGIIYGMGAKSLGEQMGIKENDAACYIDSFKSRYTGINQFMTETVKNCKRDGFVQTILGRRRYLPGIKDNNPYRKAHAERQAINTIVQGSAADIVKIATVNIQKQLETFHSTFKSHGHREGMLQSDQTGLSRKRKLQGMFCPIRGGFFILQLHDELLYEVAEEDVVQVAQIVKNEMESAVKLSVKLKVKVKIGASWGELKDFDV
Assay: Polθ Polymerase Domain Kinact/KI Assay (PicoGreen)
Type: biochemical
Details: 0.8 nM Polθ, 100 nM DNA substrate, kobs vs [I] fit for 2-step covalent inhibitor
How it was run: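 Time-dependent inhibition was followed by quenching reactions with EDTA at points up to 60 min, then staining product DNA with PicoGreen fluorescence. Reactions held 0.8 nM E. coli-expressed Polθ, 100 nM primed DNA substrate and […] at pH 7.5, 1% DMSO. kobs versus inhibitor concentration gave Kinact and KI.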

Row | Compound | Kinact/Kl
1 | C/C=C(\CN(C)C)C(=O)N1CC(c2ccc(CN3C[C@H]4CC(=O)N(c5cc(C(F)(F)F)cc(C)n5)[C@@H]4C(=O)N(C)c4cccc(C)c43)cc2)C1 [Example 195, (3aR,11aS)-5-(4-(1-((E)-2-((dimeth-ylamino)methyl)-but-2-enoyl)azeti-din-3-yl)benzyl)-6,10-dimethyl-1-(6-methyl-4-(tri-fluoromethyl)pyr-idin-2-yl)-1,3a,4,5,10,11a-hexa-hydro-2H-benzo [b]pyrrolo[2,3-f] [1,4]diazocine-2,11(3H)-dione] | 5.22e+06 M⁻¹ s⁻¹
2 | Cc1cc(C(F)(F)F)cc(N2C(=O)C[C@@H]3CN(CCCOC4CN(C(=O)C5=CCCN(C)C5)C4)c4c(C)cccc4N(C)C(=O)[C@H]32)n1 [Example 196, (3aR,11aS)-6,10-dimethyl-5-(3-((1-(1-methyl-1,2,5,6-tetrahydropyridine-3-carbonyl)azeti-din-3-yl)oxy)prop-yl)-1-(6-methyl-4-(trifluoromethyl)-pyridin-2-yl)-1,3a,4,5,10,11a-hexahydro-2H-benzo[b]pyrrolo [2,3-f][1,4]diazo-cine-2,11(3H)-dione] | 2.06e+06 M⁻¹ s⁻¹
3 | Cc1cc(C(F)(F)F)cc(N2C(=O)C[C@@H]3CN(CCOCC4CN(C(=O)C5=CCCN(C)C5)C4)c4c(C)cccc4N(C)C(=O)[C@H]32)n1 [Example 197, (3aR,11aS)-6,10-dimethyl-5-(2-((1-(1-methyl-1,2,5,6-tetrahydropyridine-3-carbonyl)azeti-din-3-yl)methoxy)-ethyl)-1-(6-methyl-4-(trifluoromethyl)-pyridin-2-yl)-1,3a, 4,5,10,11a-hexa-hydro-2H-benzo [b]pyrrolo[2,3-f] [1,4]diazocine-2,11(3H)-dione] | 1.67e+06 M⁻¹ s⁻¹
4 | C#CC(=O)N1CCn2nc(CN3C[C@H]4CC(=O)N(c5cc(C(F)(F)F)cc(C)n5)[C@@H]4C(=O)N(C)c4cccc(C)c43)cc2C1 [Example 198, (3aR,11aS)-6,10-dimethyl-1-(6-methyl-4-(trifluoro-methyl)pyridin-2-yl)-5-((5-propiolo-yl-4,5,6,7-tetra-hydropyrazolo-[1,5-a]pyrazin-2-yl)methyl)-1,3a,4,5, 10,11a-hexahydro-2H-benzo[b]pyr-rolo[2,3-f][1,4] diazocine-2,11(3H)-dione] | 700000 M⁻¹ s⁻¹
5 | C#CC(=O)NC12CC(CN3C[C@H]4CC(=O)N(c5cc(C(F)(F)F)cc(C)n5)[C@@H]4C(=O)N(C)c4cccc(C)c43)(C1)C2 [Example 200, N-(3-(((3aR,11aS)-6,10-dimethyl-1-(6-methyl-4-(tri-fluoromethyl)pyri-din-2-yl)-2,11-dioxo-1,2,3,3a,4, 10,11,11a-octa-hydro-5H-benzo[b]pyrrolo[2,3-f][1,4]diazocin-5-yl)-methyl)bicyclo [1.1.1]pentan-1-yl)propiolamide] | 690000 M⁻¹ s⁻¹
6 | CC#CC(=O)N1CCn2cc(CN3C[C@H]4CC(=O)N(c5cc(C(F)(F)F)cc(C)n5)[C@@H]4C(=O)N(C)c4cccc(C)c43)nc2C1 [Example 201, (3aR,11aS)-5-((7-(but-2-ynoyl)-5,6,7,8-tetrahydro-imidazo[1,2-a]pyr-azin-2-yl)methyl)-6,10-dimethyl-1-(6-methyl-4-(tri-fluoromethyl)pyr-idin-2-yl)-1,3a,4,5,10,11a-hexa-hydro-2H-benzo [b]pyrrolo[2,3-f] [1,4]diazocine-2,11(3H)-dione] | 2.8e+06 M⁻¹ s⁻¹
7 | C=CC(=O)N1CCn2nc(CN3C[C@H]4CC(=O)N(c5cc(C(F)(F)F)cc(C)n5)[C@@H]4C(=O)N(C)c4cccc(C)c43)nc2C1 [Example 202, (3aR,11aS)-5-((7-acryloyl-5,6,7,8-tetrahydro-[1,2,4]triazolo [1,5-a]pyrazin-2-yl)methyl)-6,10-dimethyl-1-(6-methyl-4-(trifluoromethyl)pyridin-2-yl)-1,3a,4,5,10,11a-hexahydro-2H-benzo[b]pyrrolo [2,3-f][1,4]diazocine-2,11(3H)-dione] | 5.56e+06 M⁻¹ s⁻¹
8 | C=CC(=O)N1CCn2cc(CN3C[C@H]4CC(=O)N(c5cc(C(F)(F)F)cc(C)n5)[C@@H]4C(=O)N(C)c4cccc(C)c43)nc2C1 [Example 203, (3aR,11aS)-5-((7-acryloyl-5,6,7,8-tetrahydroimidazo [1,2-a]pyrazin-2-yl)methyl)-6,10-dimethyl-1-(6-methyl-4-(trifluoromethyl)pyridin-2-yl)-1,3a,4,5,10,11a-hexahydro-2H-benzo[b]pyrrolo [2,3-f][1,4]diazocine-2,11(3H)-dione] | 4.32e+06 M⁻¹ s⁻¹

Further lines, results first:

Row | Kinact/Kl | Compound
9 | 980000 M⁻¹ s⁻¹ | C=CC(=O)N1CCC(n2cnc(CN3C[C@H]4CC(=O)N(c5cc(C(F)(F)F)cc(C)n5)[C@@H]4C(=O)N(C)c4cccc(C)c43)n2)CC1 [Example 204, (3aR,11aS)-5-((1-(1-acryloylpiperidin-4-yl)-1H-1,2,4-triazol-3-yl)methyl)-6,10-dimethyl-1-(6-methyl-4-(trifluoromethyl)pyridin-2-yl)-1,3a,4,5,10,11a-hexahydro-2H-benzo[b]pyrrolo [2,3-f][1,4]diazocine-2,11(3H)-dione]
10 | 1.67e+06 M⁻¹ s⁻¹ | C=CC(=O)N1CC(N(C)CCCN2C[C@H]3CC(=O)N(c4cc(C(F)(F)F)cc(C)n4)[C@@H]3C(=O)N(C)c3cccc(C)c32)C1 [Example 205, (3aR,11aS)-5-(3-((1-acryloylazetidin-3-yl)(methyl)amino)propyl)-6,10-dimethyl-1-(6-methyl-4-(trifluoromethyl)pyridin-2-yl)-1,3a,4,5,10,11a-hexahydro-2H-benzo[b]pyrrolo [2,3-f][1,4]diazocine-2,11(3H)-dione]
11 | 1.82e+06 M⁻¹ s⁻¹ | Cc1cc(C(F)(F)F)cc(N2C(=O)C[C@@H]3CN(Cc4ccc(NC(=O)/C=C/CN(C)C)cc4)c4c(C)cccc4N(C)C(=O)[C@H]32)n1 [Example 207, (E)-N-(4-(((3aR, 11aS)-6,10-dimethyl-1-(6-methyl-4-(trifluoromethyl)pyridin-2-yl)-2,11-dioxo-1,2,3,3a,4,10,11,11a-octahydro-5H-benzo[b]pyrrolo[2,3-f][1,4]diazocin-5-yl)methyl)phenyl)-4-(dimethylamino) but-2-enamide]
12 | 4.36e+06 M⁻¹ s⁻¹ | COc1cc(CN2C[C@H]3CC(=O)N(c4cc(C(F)(F)F)cc(C)n4)[C@@H]3C(=O)N(C)c3cccc(C)c32)ccc1NC(=O)/C=C/CN(C)C [Example 208, (E)-N-(4-(((3aR, 11aS)-6,10-dimethyl-1-(6-methyl-4-(trifluoromethyl)pyridin-2-yl)-2,11-dioxo-1,2,3,3a,4,10,11,11a-octahydro-5H-benzo[b]pyrrolo [2,3-f][1,4]diazocin-5-yl)methyl)-2-methoxyphenyl)-4-(dimethylamino) but-2-enamide]
13 | 530000 M⁻¹ s⁻¹ | C=C(CN(C)C)C(=O)Nc1ccc(CN2C[C@H]3CC(=O)N(c4cc(C(F)(F)F)cc(C)n4)[C@@H]3C(=O)N(C)c3cccc(C)c32)cc1 [Example 209, N-(4-(((3aR,11aS)-6,10-dimethyl-1-(6-methyl-4-(trifluoromethyl)pyridin-2-yl)-2,11-dioxo-1,2,3,3a,4,10,11,11a-octahydro-5H-benzo[b]pyrrolo[2,3-f][1,4]diazocin-5-yl)methyl)phenyl)-2-((dimethylamino)methyl)acrylamide]
14 | 630000 M⁻¹ s⁻¹ | C=C(CN(C)C)C(=O)Nc1ccc(CN2C[C@H]3CC(=O)N(c4cc(C(F)(F)F)cc(C)n4)[C@@H]3C(=O)N(C)c3cccc(C)c32)cc1OC [Example 210, N-(4-(((3aR,11aS)-6,10-dimethyl-1-(6-methyl-4-(trifluoromethyl)pyridin-2-yl)-2,11-dioxo-1,2,3,3a,4,10,11,11a-octahydro-5H-benzo[b]pyrrolo[2,3-f][1,4]diazocin-5-yl)methyl)-2-methoxyphenyl)-2-((dimethylamino)methyl)acrylamide]
15 | 1.57e+06 M⁻¹ s⁻¹ | Cc1cc(C(F)(F)F)cc(N2C(=O)C[C@@H]3CN(Cc4ccc(NC(=O)C5=CCCN(C)C5)cc4)c4c(C)cccc4N(C)C(=O)[C@H]32)n1 [Example 211, N-(4-(((3aR, 11aS)-6,10-dimethyl-1-(6-methyl-4-(trifluoromethyl)pyridin-2-yl)-2,11-dioxo-1,2,3,3a,4,10,11,11a-octahydro-5H-benzo[b]pyrrolo [2,3-f][1,4]diazocin-5-yl)methyl)phenyl)-1-methyl-1,2,5,6-tetrahydropyridine-3-carboxamide]
16 | 1.81e+06 M⁻¹ s⁻¹ | C=CC(=O)N1CC(N2CCC(CN3C[C@H]4CC(=O)N(c5cc(C(F)(F)F)cc(C)n5)[C@@H]4C(=O)N(C)c4cccc(F)c43)CC2)C1 [Example 212, (3aR,11aS)-5-((1-(1-acryloylazetidin-3-yl)piperidin-4-yl)methyl)-6-fluoro-10-methyl-1-(6-methyl-4-(trifluoromethyl)pyridin-2-yl)-1,3a,4,5,10,11a-hexahydro-2H-benzo[b]pyrrolo [2,3-f][1,4] diazocine-2,11 (3H)-dione]
